Columns and labels:
[1] = system: Fusobacterium nucleatum JCM 6328 (Fn-1); experiment: Bactericidal activity, CFU measuring method per Quantitative Suspension Test (EN 1276); type: cell-based; conditions: for Results of Judgment 30 sec (Log decrease of number of bacteria vs control): 30 sec contact; for Results of Judgment 1 min (Log decrease of number of bacteria vs control): 1 min contact
Method: The strain used in the bactericidal activity was obtained from The Institute of Physical and Chemical Research which was known to be a pathogen of periodontal disease and also known to produce volatile sulfides.
Fn-1 was cultured on slants of GAM medium (Nissui Pharmaceutical Co. Ltd.) and added physical saline to make a cell suspension. In detail, to each slant cultured at 37° C. for 24 hours under an anaerobic condition using BBL gas-pack anaerobic system, 2 ml of physiological saline was added and scraped off the microbes with a transfer loop to make a cell suspension. This operation was repeated twice, and the combined suspension was centrifugalized, added again a half amount of physiological saline to the precipitate to make the suspension. The suspension was filtered through two sheets of sterile gauze to remove agar pieces and fibrous cells. The filtrate was centrifugalized again, the precipitate was re-suspended in physiological saline to use for the tests.
As for test solutions, fragrance samples were dissolved in equal weight of dimethylformamide (DMF) and were diluted with ethanol to necessary concentrations (volume/volume).
Each test solution (30 μl) was added to sterile distilled water and stirred or subjected to ultrasonic treatment to dissolve sample or to form a homogeneous suspension.
To each solution or homogeneous suspension, 333 μl of previous cell suspension of Fn-1 was added and stirred. After 30 seconds and 1 minute, each 333 μl was added to 3 ml of D/E Neutralization broth (DIFCO) (10 fold dilution), 100 fold and 1000 fold dilution liquids were made similarly. Each 50 μl of the liquid was spread on 15 ml of Trypticase soy agar plates using Autoplate 4000 (Spiral Biotec Co. Ltd., MD, USA) and were cultivated at 37° C. for 40 hours under anaerobic condition. After the cultivation, colonies were counted by Q-Count (Spiral Biotec Co. Ltd., MD, USA) to determine CFU/ml.
Suspension, as a control, consisted of 3 ml of water and 333 μl of the cell suspension, and also suspension as a reference, consisted of 3 ml of water, 30 μl of ethanol and 333 μl of the cell suspension was employed to determine CFU/ml thereof.
“30 sec” and “1 min” were shown the sampling time, and “Log inc.” was shown the mean Log value of the control.

[2] = system: volatile sulfide production from saliva; experiment: Inhibition of volatile sulfide production from saliva (anaerobic culture, FPD-GC of head space); type: cell-based; conditions: saliva cultured 37° C. 3 hours under nitrogen
Method: A test of inhibitory activity of the fragrance materials on volatile sulfide production from saliva was carried out according to the following method. Saliva was collected in a 50 ml of sterile centrifuge tube from testee without brushing teeth in the morning between 9 to 10 o'clock, and was cooled on ice until use. Each of 2 ml of the saliva was put into sterile test tube with screw cap aseptically. Saliva only was used as control and that mixed with 20 μl of ethanol was used as reference.
After the addition of samples, the inner air was replaced nitrogen in a stream of nitrogen gas at 0.5 atm under stirring with a voltex mixer. Cultivation was carried out at 37° C. for 3 hours and cooled on ice until use. Volatile sulfides were analyzed by a gas chromatograph (FPD-GC) with a flame photometer. In this connection, the samples after the culture were stored in ice-water until their analysis.
Column: 6 m×4 mm i.d. (glass packed column) Column liquid phase: 20% DNP on 80/100 mesh Chromosorb W AW DMCS Column temperature: 100° C. Carrier gas (flow rate): N2 (40 ml/min) Injection temperature: 120° C. Detector: FPD (flame photometric detector; fitted with 393 nm filter for sulfur compound detection) Detector temperature: 150° C.
The inhibition rate of methyl mercaptan was determined according to the following equation:
Inhibition rate (%) of methyl mercaptan={(Blank−Sample)/Blank}×100
Blank and Sample in the equation represent the quantities of producing methyl mercaptan in respective cases. […]

[3] = 100 ppm, read-out: CH3SH Inhib. %
[4] = 1000 ppm, read-out: CH3SH Inhib. %
[5] = 500 ppm, read-out: CH3SH Inhib. %

CC1=CCC(=C(C)C)CC1 [Terpinolene]
Results of Judgment 30 sec (Log decrease of number of bacteria vs control) ([1]; 100 ppm): 1.16 Log
Results of Judgment 1 min (Log decrease of number of bacteria vs control) ([1]; 100 ppm): 1.63 Log
inhibition at 100 ppm [2, 3]: 36%

CC1(C)C[C@H]2[C@H]1CC[C@]1(C)CCC[C@@]2(O)C1 [Caryophyllene alcohol]
Results of Judgment 30 sec (Log decrease of number of bacteria vs control) ([1]; 500 ppm): 1.13 Log
Results of Judgment 1 min (Log decrease of number of bacteria vs control) ([1]; 500 ppm): 2.25 Log
CH3SH Inhib. % ([2]; 500 ppm): 100%

COC(/C=C/c1ccccc1)OC [Cinnamicaldehyde dimethyl acetal]
CH3SH Inhib. % ([2]; 1000 ppm): 100%

CC(C)[C@@H]1CC[C@@H](C)C[C@H]1OCC(O)CO (stereo partly shown) [Menthoxypropanediol]
CH3SH Inhib. % ([2]; 1000 ppm): 100%

CC(C)=CCC/C(C)=C/CCC(C)CCO (stereo not shown) [Dihydrofarnesol]
Results of Judgment 30 sec (Log decrease of number of bacteria vs control) ([1]; 300 ppm): >3.42 Log
Results of Judgment 1 min (Log decrease of number of bacteria vs control) ([1]; 300 ppm): >3.42 Log
CH3SH Inhib. % ([2]; 300 ppm): 100%

COc1ccccc1C=CC=O [o-Methoxycinnamicaldehyde]
Results of Judgment 30 sec (Log decrease of number of bacteria vs control) ([1]; 1000 ppm): 2.61 Log
Results of Judgment 1 min (Log decrease of number of bacteria vs control) ([1]; 1000 ppm): 3.85 Log
CH3SH Inhib. % ([2]; 1000 ppm): 100%

CC1CCC(C(C)C)C(O)C1 (stereo not shown) [Menthol]
inhibition at 3000 ppm ([2]; 3000 ppm, read-out: CH3SH Inhib. %): 100%

C=CCOC(=O)CCCCCC [Allyl enanthate]
inhibition at 1000 ppm [2, 4]: 100%

CCCCCCC1CCC(=O)O1 (stereo not shown) [γ-Decalactone]
CH3SH Inhib. % ([2]; 100 ppm): 59%

CCOC(=O)c1ccccc1O [Ethyl salicylate]
inhibition at 1000 ppm [2, 4]: 100%

CCCCCC=O [Hexylaldehyde]
CH3SH Inhib. % ([2]; 300 ppm): 82%

C=CC(C)(CCC=C(C)C)OC(C)=O (stereo not shown) [Linalyl acetate]
inhibition at 500 ppm [2, 5]: 43%

CC(C)c1cccc(=O)c(O)c1 [Hinokitiol]
Results of Judgment 30 sec (Log decrease of number of bacteria vs control) ([1]; 1000 ppm): >5.24 Log
Results of Judgment 1 min (Log decrease of number of bacteria vs control) ([1]; 1000 ppm): >5.24 Log
inhibition at 1000 ppm [2, 4]: 100%

Cc1ccc(C(C)C)c(O)c1 [Thymol]
inhibition at 300 ppm ([2]; 300 ppm, read-out: CH3SH Inhib. %): 100%

CC(C)=CCCC(C)=CCCC(C)=CCO [Farnesol]
Results of Judgment 30 sec (Log decrease of number of bacteria vs control) ([1]; 100 ppm): 3.70 Log
Results of Judgment 1 min (Log decrease of number of bacteria vs control) ([1]; 100 ppm): >4.18 Log
inhibition at 100 ppm [2, 3]: 100%

CCCc1ccc(O)c(OC)c1 [Dihydroeugenol]
Results of Judgment 30 sec (Log decrease of number of bacteria vs control) ([1]; 2000 ppm): >3.42 Log
Results of Judgment 1 min (Log decrease of number of bacteria vs control) ([1]; 2000 ppm): >3.42 Log
CH3SH Inhib. % ([2]; 2000 ppm): 100%

CC(C)=CCCC(C)=CC=O [Citral]
inhibition at 500 ppm [2, 5]: 100%

COC(=O)c1ccccc1O [Methyl salicylate]
inhibition at 1000 ppm [2, 4]: 100%

C=CCOC(=O)CCC1CCCCC1 [Allyl cyclohexylpropionate]
CH3SH Inhib. % ([2]; 500 ppm): 92%

O=C/C=C/c1ccccc1 [Cinnamicaldehyde]
Results of Judgment 30 sec (Log decrease of number of bacteria vs control) ([1]; 2000 ppm): >3.42 Log
Results of Judgment 1 min (Log decrease of number of bacteria vs control) ([1]; 2000 ppm): >3.42 Log
inhibition at 2000 ppm ([2]; 2000 ppm, read-out: CH3SH Inhib. %): 100%

CC=Cc1ccc(O)c(OC)c1 [Isoeugenol]
Results of Judgment 30 sec (Log decrease of number of bacteria vs control) ([1]; 500 ppm): >3.93 Log
Results of Judgment 1 min (Log decrease of number of bacteria vs control) ([1]; 500 ppm): >3.93 Log
inhibition at 500 ppm [2, 5]: 100%

CCCCCCCC1CCC(=O)O1 (stereo not shown) [γ-Undecalactone]
CH3SH Inhib. % ([2]; 100 ppm): 70%

CC1=CCC(C(C)C)=CC1 [γ-Terpinene]
Results of Judgment 30 sec (Log decrease of number of bacteria vs control) ([1]; 500 ppm): 0.94 Log
Results of Judgment 1 min (Log decrease of number of bacteria vs control) ([1]; 500 ppm): 1.26 Log
inhibition at 500 ppm [2, 5]: 66%

C=C(C)[C@H]1CC=C(C)CC1 [d-Limonene]
Results of Judgment 30 sec (Log decrease of number of bacteria vs control) ([1]; 500 ppm): 0.93 Log
Results of Judgment 1 min (Log decrease of number of bacteria vs control) ([1]; 500 ppm): 1.50 Log
CH3SH Inhib. % ([2]; 3000 ppm): 100%

CCCCCC(C=O)=Cc1ccccc1 [α-Amylcinnamicaldehyde]
CH3SH Inhib. % ([2]; 500 ppm): 99%

L-Carvone
CH3SH Inhib. % ([2]; 1000 ppm): 100%

C=C1CCC2CC1C2(C)C (stereo not drawn) [β-Pinene]
Results of Judgment 30 sec (Log decrease of number of bacteria vs control) ([1]; 500 ppm): 0.71 Log
Results of Judgment 1 min (Log decrease of number of bacteria vs control) ([1]; 500 ppm): 1.12 Log
inhibition at 500 ppm [2, 5]: 59%

C=CCc1ccc(O)c(OC)c1 [Eugenol]
inhibition at 500 ppm [2, 5]: 100%
